Reference: US20260028355A1, “PROTEOLYSIS TARGETING CHIMERA (PROTAC) COMPOSITIONS USING UBIQUITIN CONJUGATING ENZYME LIGANDS” (Berg LLC, priority 2022, published 2026)

Tests used:
BRD4 = target: T1, BRD4 (Homo sapiens, UniProt O60885); assay: Dose dependent degradation of BRD4 in HeLa cells (FIG. 2); type: cell-based
T1 construct: dose dependent degradation of BRD4 in HeLa cells; endogenous in cells; host or cells: HeLa
Text: FIG. 2 illustrates the dose dependent degradation of BRD4 in HeLa cells using E2 binding PROTACS based on the present disclosure.
Dose Dependent Degradation of BRD4 in HeLa Cells
Compounds 6, 7, and 9 were then investigated for their ability to degrade BRD4.

UBE2K-Ub = assay: E2 binding capacity of PROTACs (FIG. 1)
Text: UBE2K binder Compound 1 was used as a precursor to generate PROTAC Compounds 2, 6, 7, and 9. See experimental section above. Each of these PROTACs were first tested for their ability to bind the E2 enzyme UBE2K.

UBE2K = target: T2, UBE2K (Homo sapiens, UniProt P61086); assay: UBE2K dissociation constant (Kd) by surface plasmon resonance (Biacore S200); type: binding; conditions: SPR, steady state fitting; immobilized biotinylated UBE2K-Ub complex and UBE2K wild type
T2 sequence (P61086 1-200): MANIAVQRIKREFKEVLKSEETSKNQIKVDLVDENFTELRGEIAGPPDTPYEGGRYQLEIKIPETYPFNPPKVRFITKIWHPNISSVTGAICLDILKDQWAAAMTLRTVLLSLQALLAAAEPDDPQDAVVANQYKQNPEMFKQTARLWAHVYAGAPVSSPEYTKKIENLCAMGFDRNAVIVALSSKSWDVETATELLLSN
Procedure: UBE2K Dissociation Constant (Kd) of E2-binder Compound 1
UBE2K Ligand binding to mono-Ub UBE2K and UBE2K was measured by Surface plasma resonance using a Biacore SPR S200 instrument. The proteins and ligands were prepared for experimental measurement as described below.
Avi tagged proteins were biotinylated and were immobilized on a Series S/Sensor Chip SA. Proteins were immobilized based on their molar weight as follows -Biotinylated Avi peptide (1000 μM), Biotinylated UBE2K-Ub Complex (12 μM) and Biotinylated UBE2K Wild Type (3 μM). Proteins were immobilized using a buffer comprised of 1X HBS-N Buffer+0.05% Tween 20 (250 mL). A stock of Compound 1 was prepared in affinity buffer comprised of 1% DMSO, 1×PBS-P+Buffer. Further dilution of stock were prepared in 0% DMSO, 1×PBS-P+Buffer or 3% DMSO, 1×PBS-P+Buffer and were used as running buffers. Compound 1 was prepared as 2 mM or 750 μM stocks in the buffers described above. Titration was performed using the Liquid handler/TECAN EVO (WALL-E) as follows. 1 or 2, 96 deep well plates (1.2 mL) were used for performing titrations-Aliquoted 3% DMSO, 1×PBS-P+buffer. 1:2 dilution was performed by WALL-E (250 μL+250 μL) for the rest of titrations till 3.12 μM. The titrations of Compound 1 was then transferred to 384 deep well plate in duplicates side-by-side (125 μL) each. […]

| SMILES | loss of BRD4 (BRD4) | other results |
| --- | --- | --- |
| Cc1sc2c(c1C)C(c1ccc(Cl)cc1)=N[C@@H](CC(=O)NCCOCCOCCNC(=O)CSc1nc3ccccc3c3cc(CNC(=O)c4ccccc4OC(F)(F)F)nn13)c1nnc(C)n1-2 [Compound 9, (S)—N-((5-((14-(4-(4-chlorophenyl)-2,3,9-trimethyl-6H-thieno [3,2 f][1,2,4]triazolo [4,3-a][1,4]diazepin-6-yl)-2,13-dioxo-6,9-dioxa-3,12-diazatetradecyl)thio)pyrazolo[1,5-c]quinazolin-2-yl)methyl)-2-(trifluoromethoxy)benzamide] | concentration dependent loss of BRD4 |  |
| Cc1sc2c(c1C)C(c1ccc(Cl)cc1)=N[C@@H](CC(=O)NCCSc1nc3ccccc3c3cc(CNC(=O)c4ccccc4OC(F)(F)F)nn13)c1nnc(C)n1-2 [Compound 2, (S)—N-((5-((2-(2-(4-(4-chlorophenyl)-2,3,9-trimethyl-6H-thieno[3,2-f][1,2,4]triazolo[4,3-a][1,4]diazepin-6-yl)acetamido)ethyl)thio)pyrazolo[1,5-c]quinazolin-2-yl)methyl)-2-(trifluoromethoxy) benzamide] |  | binding to UBE2K-Ub (UBE2K-Ub): All compounds except for Compound 2 bind |
| O=C(NCc1cc2c3ccccc3nc(S)n2n1)c1ccccc1OC(F)(F)F [Compound 1, N-((5-thioxo-5,6-dihydropyrazolo[1,5-c]quinazolin-2-yl)methyl)-2-(trifluoromethoxy)benzamide] |  | Kd (UBE2K): 2110 nM |
| Cc1sc2c(c1C)C(c1ccc(Cl)cc1)=N[C@@H](CC(=O)NCCOCCNC(=O)CSc1nc3ccccc3c3cc(CNC(=O)c4ccccc4OC(F)(F)F)nn13)c1nnc(C)n1-2 [Compound 7, (S)—N-((5-((2-((2-(2-(2-(4-(4-chlorophenyl)-2,3,9-trimethyl-6H-thieno[3,2-f][1,2,4]triazolo[4,3-a][1,4]diazepin-6-yl)acetamido)ethoxy)ethyl)amino)-2-oxoethyl)thio)pyrazolo[1,5-c]quinazolin-2-yl)methyl)-2-(trifluoromethoxy)benzamide] | concentration dependent loss of BRD4 |  |
